Data from PubChem BioAssay (NCI).
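Briefly, cells in 96-well plates were exposed to five compound concentrations for 48 h, and endpoints were estimated by linear interpolation. GI50 marks 50% less growth. TGI is the concentration that stops growth completely.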

Assays:
Assay in all cases: NCI tumour cell line growth inhibition, 48 h
[1] = system: OVCAR-8 ovarian
[2] = system: COLO 205 colon
[3] = system: SF-539 CNS
[4] = system: UACC-257 melanoma
[5] = system: SW-620 colon
[6] = system: RXF 393 renal
[7] = system: UACC-62 melanoma
[8] = system: HL-60(TB) leukemia
[9] = system: MALME-3M melanoma
[10] = system: TK-10 renal
[11] = system: SK-OV-3 ovarian
[12] = system: DU-145 prostate
[13] = system: HS 578T breast
[14] = system: HT29 colon
[15] = system: K-562 leukemia
[16] = system: HCC-2998 colon
[17] = system: A549 NSCLC
[18] = system: OVCAR-3 ovarian
[19] = system: UO-31 renal
[20] = system: SN12C renal
[21] = system: KM12 colon
[22] = system: BT-549 breast
[23] = system: SK-MEL-2 melanoma
[24] = system: RPMI-8226 leukemia
[25] = system: NCI-H226 lung
[26] = system: NCI/ADR-RES ovarian
[27] = system: LOX IMVI melanoma
[28] = system: HCT-116 colon
[29] = system: U251 CNS
[30] = system: MDA-MB-231 breast
[31] = system: OVCAR-4 ovarian
[32] = system: CAKI-1 renal
[33] = system: SK-MEL-28 melanoma
[34] = system: IGROV1 ovarian
[35] = system: SNB-75 CNS
[36] = system: HOP-62 NSCLC
[37] = system: 786-0 renal
[38] = system: CCRF-CEM leukemia
[39] = system: SF-268 CNS
[40] = system: MDA-MB-435
[41] = system: SF-295 CNS
[42] = system: NCI-H23 lung
[43] = system: A498 renal
[44] = system: ACHN renal
[45] = system: PC-3 prostate
[46] = system: OVCAR-5 ovarian
[47] = system: M14 melanoma
[48] = system: T-47D breast
[49] = system: HOP-92 NSCLC
[50] = system: NCI-H460 lung
[51] = system: SNB-19 CNS
[52] = system: MOLT-4 leukemia
[53] = system: NCI-H522 lung
[54] = system: MCF7 breast
[55] = system: EKVX NSCLC
[56] = system: SK-MEL-5 melanoma
[57] = system: HCT-15 colon

Compound: O=c1c2cc(I)ccc2nc(-c2cccs2)n1-c1ccc(S(=O)(=O)Nc2nccs2)cc1
- GI50 [1]: 32 µM
- TGI [1]: 98 µM
- GI50 [2]: 33.5 µM
- TGI [2]: > 100 µM
- GI50 [3]: 22.6 µM
- TGI [3]: 44.5 µM
- GI50 [4]: 41.8 µM
- TGI [4]: > 100 µM
- GI50 [5]: 31.3 µM
- TGI [5]: > 100 µM
- GI50 [6]: 40 µM
- TGI [6]: > 100 µM
- GI50 [7]: 22.8 µM
- TGI [7]: 52.1 µM
- GI50 [8]: 50.4 µM
- TGI [8]: > 100 µM
- GI50 [9]: 36.7 µM
- TGI [9]: 99.9 µM
- GI50 [10]: 35.2 µM
- TGI [10]: > 100 µM
- GI50 [11]: 66.6 µM
- TGI [11]: > 100 µM
- GI50 [12]: 27.4 µM
- TGI [12]: > 100 µM
- GI50 [13]: 26.2 µM
- TGI [13]: 84.1 µM
- GI50 [14]: > 100 µM
- TGI [14]: > 100 µM
- GI50 [15]: 36.6 µM
- TGI [15]: > 100 µM
- GI50 [16]: 29.5 µM
- TGI [16]: 62.5 µM
- GI50 [17]: 49.1 µM
- TGI [17]: > 100 µM
- GI50 [18]: 25.3 µM
- TGI [18]: 83.8 µM
- GI50 [19]: 22.6 µM
- TGI [19]: 51.6 µM
- GI50 [20]: 37.2 µM
- TGI [20]: > 100 µM
- GI50 [21]: 39.2 µM
- TGI [21]: > 100 µM
- GI50 [22]: 22.3 µM
- TGI [22]: 60.6 µM
- GI50 [23]: 33.2 µM
- TGI [23]: > 100 µM
- GI50 [24]: 38.4 µM
- TGI [24]: > 100 µM
- GI50 [25]: 24.9 µM
- TGI [25]: 74.8 µM
- GI50 [26]: 88.1 µM
- TGI [26]: > 100 µM
- GI50 [27]: 28.9 µM
- TGI [27]: 82.8 µM
- GI50 [28]: 37.1 µM
- TGI [28]: > 100 µM
- GI50 [29]: 27.2 µM
- TGI [29]: 81.7 µM
- GI50 [30]: 25.1 µM
- TGI [30]: 73.5 µM
- GI50 [31]: 86.9 µM
- TGI [31]: > 100 µM
- GI50 [32]: 21.1 µM
- TGI [32]: 52 µM
- GI50 [33]: 78.5 µM
- TGI [33]: > 100 µM
- GI50 [34]: 33.2 µM
- TGI [34]: > 100 µM
- GI50 [35]: > 100 µM
- TGI [35]: > 100 µM
- GI50 [36]: 42.8 µM
- TGI [36]: > 100 µM
- GI50 [37]: 54.1 µM
- TGI [37]: > 100 µM
- GI50 [38]: 38.4 µM
- TGI [38]: > 100 µM
- GI50 [39]: 29.6 µM
- TGI [39]: > 100 µM
- GI50 [40]: 36.8 µM
- TGI [40]: > 100 µM
- GI50 [41]: 27.6 µM
- TGI [41]: > 100 µM
- GI50 [42]: 22.5 µM
- TGI [42]: > 100 µM
- GI50 [43]: 22.7 µM
- TGI [43]: 71.5 µM
- GI50 [44]: 41.3 µM
- TGI [44]: > 100 µM
- GI50 [45]: 38.4 µM
- TGI [45]: > 100 µM
- GI50 [46]: 35.3 µM
- TGI [46]: > 100 µM
- GI50 [47]: > 100 µM
- TGI [47]: > 100 µM
- GI50 [48]: 34.4 µM
- TGI [48]: > 100 µM
- GI50 [49]: 28.8 µM
- TGI [49]: > 100 µM
- GI50 [50]: 34.2 µM
- TGI [50]: > 100 µM
- GI50 [51]: 41.9 µM
- TGI [51]: > 100 µM
- GI50 [52]: 61.4 µM
- TGI [52]: > 100 µM
- GI50 [53]: 25.9 µM
- TGI [53]: 76 µM
- GI50 [54]: 41.7 µM
- TGI [54]: > 100 µM
- GI50 [55]: 20.8 µM
- TGI [55]: 55.5 µM
- GI50 [56]: 19.7 µM
- TGI [56]: 44.2 µM
- GI50 [57]: 42.6 µM
- TGI [57]: > 100 µM
